Counter-ions that a name gives are not always drawn.
How the values were obtained:
MMP-13 = target: T1, MMP-13 (Homo sapiens, UniProt P45452); assay: In-vitro fluorescence assay of MMP-13 activity; assay type: biochemical; conditions: recombinant human catalytic domain of MMP-13; read-out: MMP-13 IC50
T1 construct: made in house

MMP-2 = target: T2, MMP-2 (Homo sapiens, UniProt P08253); assay: In-vitro fluorescence assay of MMP-2 activity; assay type: biochemical; conditions: recombinant human MMP-2; read-out: MMP-2 IC50
T2 construct: purchased Oncogene Research Products (Calbiochem) PF023
T2 sequence (P08253 110-660): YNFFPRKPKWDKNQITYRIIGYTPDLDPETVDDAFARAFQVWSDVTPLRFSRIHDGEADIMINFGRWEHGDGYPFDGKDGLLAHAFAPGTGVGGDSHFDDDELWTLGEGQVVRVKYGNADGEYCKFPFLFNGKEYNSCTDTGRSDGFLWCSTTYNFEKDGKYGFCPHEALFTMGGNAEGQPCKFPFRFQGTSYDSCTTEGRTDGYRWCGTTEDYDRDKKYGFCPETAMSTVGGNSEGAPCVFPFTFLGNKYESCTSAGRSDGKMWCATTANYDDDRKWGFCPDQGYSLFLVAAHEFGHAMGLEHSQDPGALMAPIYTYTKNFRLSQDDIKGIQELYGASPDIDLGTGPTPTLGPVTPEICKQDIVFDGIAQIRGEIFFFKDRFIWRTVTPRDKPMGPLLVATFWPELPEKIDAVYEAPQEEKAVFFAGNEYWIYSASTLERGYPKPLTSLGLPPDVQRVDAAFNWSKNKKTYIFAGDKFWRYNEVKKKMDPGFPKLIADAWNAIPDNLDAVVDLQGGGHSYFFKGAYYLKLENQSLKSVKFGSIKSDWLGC

| Compound | IC50 (MMP-13) [µM] | IC50 (MMP-2) [µM] |
| --- | --- | --- |
| COC/C=C\c1cccc2oc(C(=O)Nc3ccc(-c4ccc(S(=O)(=O)N[C@H](C(=O)O)C(C)C)cc4)cc3)c(C)c12 [Example 25, L-2-(4′-{[4-(3-Methoxy-Z-propenyl)-3-methyl-benzofuran-2-carbonyl]-amino}-biphenyl-4-sulfonylamino)-3-methyl-butyric acid] | 0.014 | 6.32 |
| Cc1c(C(=O)Nc2ccc(-c3ccc(S(=O)(=O)N[C@H](C(=O)O)C(C)C)cc3)cc2)oc2cccc(C#CCO)c12 [Example 26, L-2-(4′-{[4-(3-Hydroxy-prop-1-ynyl)-3-methyl-benzofuran-2-carbonyl]-amino}-biphenyl-4-sulfonylamino)-3-methyl-butyric acid] | 0.0062 | 3.38 |
| Cc1c(C(=O)Nc2ccc(-c3ccc(S(=O)(=O)N[C@H](C(=O)O)C(C)C)cc3)cc2)oc2cccc(CCCO)c12 [Example 27, L-2-(4′-{[4-(3-Hydroxy-propyl)-3-methyl-benzofuran-2-carbonyl]-amino}-biphenyl-4-sulfonylamino)-3-methyl-butyric acid] | 0.0071 | 4.41 |
| C#Cc1cccc2oc(C(=O)Nc3ccc(-c4ccc(S(=O)(=O)N[C@H](C(=O)O)C(C)C)cc4)cc3)c(C)c12 [Example 33, L-2-{4′-[(4-Ethynyl-3-methyl-benzofuran-2-carbonyl)-amino]-biphenyl-4-sulfonylamino}-3-methyl-butyric acid] | 0.0061 | 0.595 |
| Cc1c(C(=O)Nc2ccc(-c3ccc(S(=O)(=O)N[C@H](C(=O)O)C(C)C)cc3)cc2)oc2cccc(C#CC(C)(C)C)c12 [Example 34, L-2-(4′-{[4-(3,3-Dimethyl-but-1-ynyl)-3-methyl-benzofuran-2-carbonyl]-amino}-biphenyl-4-sulfonylamino)-3-methyl-butyric acid] | 0.152 | 2.5 |
| Cc1c(C(=O)Nc2ccc(-c3ccc(S(=O)(=O)N[C@H](C(=O)O)C(C)C)cc3)cc2)oc2cccc(N(C)S(C)(=O)=O)c12 [Example 37, L-2-(4′-{[4-(Methanesulfonyl-methyl-animo)-3-methyl-benzofuran-2-carbonyl]-amino}-biphenyl-4-sulfonylamino)-3-methyl-butyric acid] | 0.016 | 2.34 |
| Cc1c(C(=O)Nc2ccc(-c3ccc(S(=O)(=O)N[C@H](C(=O)O)C(C)O)cc3)nc2)oc2cccc(NS(C)(=O)=O)c12 (stereo partly drawn) [Example 38, L-3-Hydroxy-2-(4-{5-[(4-methanesulfonylamino-3-methyl-benzofuran-2-carbonyl)-amino]-pyridin-2-yl}-benzenesulfonylamino)-butyric acid] | 0.028 | 8.89 |
| Cc1c(C(=O)Nc2ccc(-c3ccc(S(=O)(=O)N[C@H](C(=O)O)C(C)C)cc3)nc2)oc2cccc(NS(C)(=O)=O)c12 [Example 39, L-2-(4-{5-[(4-Methanesulfonylamino-3-methyl-benzofuran-2-carbonyl)-amino]-pyridin-2-yl}-benzenesulfonylamino)-3-methyl-butyric acid] | 0.03 | 7.5 |
| Cc1c(C(=O)Nc2ccc(-c3ccc(S(=O)(=O)N[C@H](C(=O)O)C(C)C)cc3)nc2)oc2cccc(C#N)c12 [Example 40, L-2-(4-{5-[(4-Cyano-3-methyl-benzofuran-2-carbonyl)-amino]-pyridin-2-yl}-benzenesulfonylamino)-3-methyl-butyric acid] | 0.0162 | 2.84 |
| Cc1c(C(=O)Nc2ccc(-c3ccc(S(=O)(=O)N[C@@H](C(=O)O)C(C)C)cc3)cc2)oc2cccc(NS(C)(=O)=O)c12 [Example 41, D-2-{4-[(4-Methanesulfonylamino-3-methyl-benzofuran-2-carbonyl)-amino]-biphenyl-4-sulfonylamino}-3-methyl-butyric acid] | 0.0085 | 1.46 |
| Cc1c(C(=O)Nc2ccc(-c3ccc(S(=O)(=O)N(C)[C@H](C(=O)O)C(C)C)cc3)cc2)oc2cccc(C#N)c12 [Example 42, L-2-({4′-[(4-Cyano-3-methyl-benzofuran-2-carbonyl)-amino]-biphenyl-4-sulfonyl}-methyl-amino)-3-methyl-butyric acid] | 0.041 | 1.59 |
| Cc1c(C(=O)Nc2ccc(-c3ccc(S(=O)(=O)N[C@H](C(=O)O)C(C)C)cc3)cc2)oc2ccc(Br)cc12 [Example 45, 2-{4′-[(5-Bromo-3-methyl-benzofuran-2-carbonyl)-amino]-biphenyl-4-sulfonylamino}-3-methyl-butyric acid] | 0.003 | 0.081 |
| CCC(=O)Nc1cccc2oc(C(=O)Nc3ccc(-c4ccc(S(=O)(=O)N[C@H](C(=O)O)C(C)C)cc4)cc3)c(C)c12 [Example 49, L-3-Methyl-2-{4′-[(3-methyl-4-propionylamino-benzofuran-2-carbonyl)-amino]-biphenyl-4-sulfonylamino}-butyric acid] | 0.035 | 5.77 |
| CC(C)[C@H](NS(=O)(=O)c1ccc(-c2ccc(NC(=O)c3nc4ccccc4[nH]3)cc2)cc1)C(=O)O [Example 52, L-2-{4′-[(1H-Benzoimidazole-2-carbonyl)-amino]-biphenyl-4-sulfonylamino}-3-methyl-butyric acid] | 0.0004 | 0.0004 |
| Cc1c(C(=O)Nc2ccc(-c3ccc(S(=O)(=O)N[C@H](C(=O)O)C(C)C)cc3)cc2)oc2cccc(-c3nn[nH]n3)c12 [Example 56, L-3-Methyl-2-(4′-{[3-methyl-4-(2H-tetrazol-5-yl)-benzofuran-2-carbonyl]-amino}-biphenyl-4-sulfonylamino)-butyric acid] | 0.013 | 13.3 |
| CCc1c(C(=O)Nc2ccc(-c3ccc(S(=O)(=O)N[C@H](C(=O)O)C(C)C)cc3)cc2)oc2ccccc12 [Example 58, L-2-{4′-[(3-Ethyl-benzofuran-2-carbonyl)-amino]-biphenyl-4-sulfonylamino}-3-methyl-butyric acid] | 0.056 | 1.77 |

Now from value to compound:

| IC50 (MMP-13) [µM] | IC50 (MMP-2) [µM] | Compound |
| --- | --- | --- |
| 0.024 | 8 | Cc1c(C(=O)Nc2ccc(-c3ccc(S(=O)(=O)N[C@H](C(=O)O)C(C)C)cc3)cc2)oc2cccc(CCC3CC3)c12 [Example 24, L-2-(4′-{[4-(2-Cyclopropyl-ethyl)-3-methyl-benzofuran-2-carbonyl]-amino}-biphenyl-4-sulfonylamino)-3-methyl-butyric acid] |
| 0.047 | 6.64 | Cc1c(C(=O)Nc2ccc(-c3ccc(S(=O)(=O)N[C@H](C(=O)O)C(C)C)cc3)cc2)oc2cccc(C#CCC(C)C)c12 [Example 28, L-3-Methyl-2-(4′-{[3-methyl-4-(4-methyl-pent-1-ynyl)-benzofuran-2-carbonyl]-amino}-biphenyl-4-sulfonylamino)-butyric acid] |
| 0.037 | 9.32 | Cc1c(C(=O)Nc2ccc(-c3ccc(S(=O)(=O)N[C@H](C(=O)O)C(C)C)cc3)cc2)oc2cccc(CCCC(C)C)c12 [Example 29, L-3-Methyl-2-(4′-{[3-methyl-4-(4-methyl-pentyl)-benzofuran-2-carbonyl]-amino}-biphenyl-4-sulfonylamino)-butyric acid] |
| 0.021 | 3.15 | Cc1c(C(=O)Nc2ccc(-c3ccc(S(=O)(=O)N[C@H](C(=O)O)C(C)C)cc3)cc2)oc2cccc(CCCN(C)C)c12 [Example 32, L-2-(4′-{[4-(3-Dimethylamino-propyl)-3-methyl-benzofuran-2-carbonyl]-animo}-biphenyl-4-sulfonylamino)-3-methyl-butyric acid] |
| 0.022 | 6.72 | CNC(=O)c1cccc2oc(C(=O)Nc3ccc(-c4ccc(S(=O)(=O)N[C@H](C(=O)O)C(C)C)cc4)cc3)c(C)c12 [Example 43A, (L-3-methyl-2-{4′-[(3-methyl-4-methylcarbamoyl-benzofuran-2-carbonyl)-amino]-biphenyl-4-sulfonylamino}-butyric acid triethylamine salt] |
| 0.018 | 7.77 | Cc1c(C(=O)Nc2ccc(-c3ccc(S(=O)(=O)N[C@H](C(=O)O)C(C)C)cc3)cc2)oc2cccc(C(=O)N(C)C)c12 [Example 43B, 2-{4′-[(4-dimethylcarbamoyl-3-methyl-benzofuran-2-carbonyl)-amino]-biphenyl-4-sulfonylamino}-3-methyl-butyric acid triethylamine salt] |
| 0.045 | 7.71 | Cc1c(C(=O)Nc2ccc(-c3ccc(S(=O)(=O)N[C@H](C(=O)O)C(C)C)cc3)cc2)oc2cccc(NC(=O)C(C)C)c12 [Example 50, L-2-{4′-[(4-Isobutyrylamino-3-methyl-benzofuran-2-carbonyl)-amino]-biphenyl-4-sulfonylamino}-3-methyl-butyric acid] |
| 0.02 | 2.38 | CC(=O)N(C)c1cccc2oc(C(=O)Nc3ccc(-c4ccc(S(=O)(=O)N[C@H](C(=O)O)C(C)C)cc4)cc3)c(C)c12 [Example 55, L-2-(4′-{[4-(Acetyl-methyl-amino)-3-methyl-benzofuran-2-carbonyl]-amino}-biphenyl-4-sulfonylamino)-3-methyl-butyric acid] |
| 0.093 | 7 | Cc1c(C(=O)Nc2ccc(-c3ccc(S(=O)(=O)N[C@H](C(=O)O)C(C)C)cc3)cc2)oc2cccc(CCC(C)(C)C)c12 [Example 57, L-2-(4′-{[^4-(3,^3-Dimethyl-butyl)-3-methyl-benzofuran-2-carbonyl]-amino}-biphenyl-4-sulfonylamino)-3-methyl-butyric acid] |

— patent publication US7420001B2 (Wyeth, priority 2003, dated 2008)
